pIC50: −log10 of the molar value. ≈ marks a conversion by molar mass, not a printed value. Values belong to the molecule of their own block, whether it stands above or below them. Calls of active or inactive are those of the source. The calls are words filed in the database; no cut-off is given here.
Columns and labels:
[1] = target: T1, Tyrosine-protein kinase receptor UFO (Homo sapiens, UniProt P30530); assay: Inhibition of Axl (unknown origin) using 5'FAM labeled KKKKEEIYFFF-NH2 peptide as substrate incubated for 1.5 hrs
T1 sequence (P30530 whole entry): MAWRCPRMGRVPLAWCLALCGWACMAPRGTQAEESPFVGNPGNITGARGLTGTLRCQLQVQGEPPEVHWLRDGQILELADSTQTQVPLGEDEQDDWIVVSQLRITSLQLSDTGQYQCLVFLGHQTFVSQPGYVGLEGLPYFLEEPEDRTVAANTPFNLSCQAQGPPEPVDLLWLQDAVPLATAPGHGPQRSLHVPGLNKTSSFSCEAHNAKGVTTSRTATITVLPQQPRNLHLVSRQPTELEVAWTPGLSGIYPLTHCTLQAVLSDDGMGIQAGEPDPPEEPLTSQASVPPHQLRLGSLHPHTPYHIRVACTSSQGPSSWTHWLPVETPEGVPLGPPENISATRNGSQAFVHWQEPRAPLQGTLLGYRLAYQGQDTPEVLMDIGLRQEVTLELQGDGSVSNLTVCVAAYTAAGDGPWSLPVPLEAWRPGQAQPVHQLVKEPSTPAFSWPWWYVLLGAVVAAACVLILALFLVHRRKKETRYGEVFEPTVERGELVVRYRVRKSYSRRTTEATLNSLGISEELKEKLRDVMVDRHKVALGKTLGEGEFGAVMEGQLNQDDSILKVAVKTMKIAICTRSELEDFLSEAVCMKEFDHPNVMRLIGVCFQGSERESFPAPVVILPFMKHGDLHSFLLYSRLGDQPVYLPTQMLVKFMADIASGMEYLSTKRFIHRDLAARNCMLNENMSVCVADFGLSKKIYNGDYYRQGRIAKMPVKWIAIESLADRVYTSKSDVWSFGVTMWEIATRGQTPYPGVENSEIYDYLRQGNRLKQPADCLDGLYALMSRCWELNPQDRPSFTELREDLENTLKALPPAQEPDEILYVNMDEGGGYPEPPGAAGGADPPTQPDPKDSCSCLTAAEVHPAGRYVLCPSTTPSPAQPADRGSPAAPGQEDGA

[2] = Permeability across apical to basolateral side in human Caco-2 cells; type: ADME, cell-based; conditions: read-out: permeability
[3] = Half life in mouse at 5 mg/kg, po; type: ADME, organism-based; conditions: in vivo
[4] = Distribution coefficient, logD of compound at pH 7.4; type: physicochemical; conditions: octanol/water
[5] = Intrinsic clearance in human liver microsomes; type: ADME, Microsome; conditions: read-out: CLH
[6] = Intrinsic clearance in mouse liver microsomes; type: ADME, Microsome; conditions: read-out: CLH
[7] = Thermodynamic solubility of compound at pH 7.4; type: physicochemical; conditions: buffer, read-out: Therm_solubility
[8] = Cmax in mouse at 5 mg/kg, po; type: ADME, organism-based; design: route oral, dose 5 mg/kg; conditions: in vivo
[9] = Permeability across basolateral to apical side in human Caco-2 cells; type: ADME, cell-based; conditions: read-out: permeability
[10] = Tmax in mouse at 5 mg/kg, po; type: ADME, organism-based; conditions: in vivo
[11] = AUC (0 to infinity) in mouse at 5 mg/kg, po; type: ADME, organism-based; design: route oral, time infinity, dose 5 mg/kg; conditions: in vivo
[12] = Efflux ratio of permeability in human Caco-2 cells; type: ADME, cell-based
[13] = target: T1, Tyrosine-protein kinase receptor UFO; assay: Displacement of K5 tracer from Axl (unknown origin) expressed in human HEK293 cells cotransfected with NanoLuc measured after 2 hrs by NanoBRET assay; type: cell-based
[14] = tested on: SK-OV-3; assay: Antiproliferative activity against human SK-OV-3 cells as reduction in cell growth measured after 72 hrs by Celltiter-Glo luminescent assay; type: functional
[15] = target: Tyrosine-protein kinase receptor UFO (Homo sapiens) (UniProt P30530); assay: Inhibition of Axl in human SK-OV-3 cells assessed as reduction in phosphorylated ERK1/2 level at 1 to 10 uM measured after 1 hr by Western blot analysis; type: cell-based; conditions: dose 1-10 µM
[16] = target: Tyrosine-protein kinase receptor UFO (Homo sapiens) (UniProt P30530); assay: Inhibition of Axl in human SK-OV-3 cells assessed as reduction in phosphorylated Axl level measured after 1 hr by Western blot analysis; type: cell-based; conditions: dose 1-10 µM

Structure (SMILES): Fc1ccc(-n2cc(-c3n[nH]c4cc(Cl)c(N[C@@H]5CCNC5)cc34)cn2)cc1
pIC50 [1]: 5.64
pIC50 [13]: 6.16

Structure (SMILES): FCCn1cc(-c2n[nH]c3cc(Cl)c(N[C@@H]4CCNC4)cc23)cn1
pIC50 [1]: 5.30
pIC50 [13]: 5.46

Structure (SMILES): Cn1cc(-c2n[nH]c3ccc(N)cc23)cn1
pIC50 [1]: 5.05

Structure (SMILES): CN1CCC(Nc2ccc3[nH]nc(-c4cnn(C)c4)c3c2)CC1
pIC50 [1]: 3.68

Structure (SMILES): COc1ccc(-n2cc(-c3n[nH]c4cc(Cl)c(N[C@@H]5CCNC5)cc34)cn2)cc1
GI50 [14]: 0.718 µM
inhibition [15]: Active
pIC50 [1]: 6.52
inhibition [16]: Dose-Dependent Effect
pIC50 [13]: 6.43

Structure (SMILES): Nc1ccc2c(-c3cccnc3)n[nH]c2c1
pIC50 [1]: 4.55

Structure (SMILES): CSc1cc(-c2ccc(F)cc2)n[nH]1
pIC50 [1]: 3.48

Structure (SMILES): Clc1ncnc2ccsc12
pIC50 [1]: 3.52

Structure (SMILES): COc1cc2[nH]ncc2cc1Br
pIC50 [1]: 3.64

Structure (SMILES): CN1CC[C@@H](Nc2cc3c(-c4cnn(C)c4)n[nH]c3cc2Cl)C1
pIC50 [1]: 4.13
pIC50 [13]: 5.05

Structure (SMILES): COc1ccc(-n2cc(-c3n[nH]c4cc(Cl)c(N[C@H]5CNCC56CC6)cc34)cn2)cc1
GI50 [14]: 0.0285 µM
Papp A→B [2]: 4.05 ×10⁻⁶ cm/s
half-life [3]: 2.16 h
logD [4]: > 5
microsomal CLint [5]: 83 µL/min/mg
microsomal CLint [6]: 5.14 µL/min/mg
solubility thermodynamic [7]: 5.55 µg/mL (≈ 12.8 µM)
Cmax [8]: 53 ng/mL
Papp B→A [9]: 5.24 ×10⁻⁶ cm/s
Tmax [10]: 0.25 h
pIC50 [1]: 6.00
AUC(0-inf) [11]: 129 ng·h/mL
efflux ratio [12]: 1.3
pIC50 [13]: 6.05

Structure (SMILES): Cn1cc(-c2n[nH]c3cc(-c4ccccc4)ccc23)cn1
pIC50 [1]: 4.91

Structure (SMILES): Brc1c[nH]c2ncccc12
pIC50 [1]: 4.64

Structure (SMILES): Brc1cccc2[nH]ncc12
pIC50 [1]: 3.75

Structure (SMILES): c1cncc(-c2csc(-c3cccnc3)n2)c1
pIC50 [1]: 3.52

Structure (SMILES): Nc1cccc2[nH]nc(Br)c12
pIC50 [1]: 3.31

Structure (SMILES): Cn1cc(-c2n[nH]c3cc(Cl)c(N[C@@H]4CCNC4)cc23)cn1
GI50 [14]: 8.62 µM
Papp A→B [2]: 0.39 ×10⁻⁶ cm/s
logD [4]: 0.32
microsomal CLint [5]: < 12 µL/min/mg
microsomal CLint [6]: 9.38 µL/min/mg
solubility thermodynamic [7]: 297 µg/mL (≈ 938 µM)
Papp B→A [9]: 8.71 ×10⁻⁶ cm/s
inhibition [15]: Active
pIC50 [1]: 4.72
inhibition [16]: Dose-Dependent Effect
efflux ratio [12]: 22.6
pIC50 [13]: 5.50

Continued, values first:

pIC50 [1]: 3.36
Structure (SMILES): CNC1CCN(c2ccc3[nH]nc(-c4cnn(C)c4)c3c2)C1 (stereo not given)

Papp A→B [2]: 13.7 ×10⁻⁶ cm/s
half-life [3]: 2 h
logD [4]: 2.31
microsomal CLint [5]: 6.9 µL/min/mg
microsomal CLint [6]: 15.2 µL/min/mg
solubility thermodynamic [7]: 245 µg/mL (≈ 657 µM)
Cmax [8]: 126 ng/mL
Papp B→A [9]: 31.6 ×10⁻⁶ cm/s
Tmax [10]: 0.17 h
pIC50 [1]: 3.49
AUC(0-inf) [11]: 396 ng·h/mL
efflux ratio [12]: 2.31
pIC50 [13]: 4.61
Structure (SMILES): Cn1cc(-c2n[nH]c3cc(Cl)c(N[C@@H]4CCN(C5COC5)C4)cc23)cn1

pIC50 [1]: < 3.42
Structure (SMILES): Cn1cc(-c2nn(C)c3cc(N)ccc23)cn1

pIC50 [1]: 3.41
Structure (SMILES): c1cnc2[nH]ccc2c1

pIC50 [1]: 6.21
Structure (SMILES): Cn1cc(-c2n[nH]c3ccc(-c4ccccc4)cc23)cn1

pIC50 [1]: 6.24
Structure (SMILES): Cn1cc(-c2n[nH]c3ccc(Nc4ccccc4)cc23)cn1

pIC50 [1]: 4.43
pIC50 [13]: 4.68
Structure (SMILES): Cn1cc(-c2n[nH]c3ccc(N[C@@H]4CCNC4)cc23)cn1

pIC50 [1]: 4.15
Structure (SMILES): Cc1ccc(C)n1-c1ccsc1C(=O)O

pIC50 [1]: 6.07
Structure (SMILES): Cn1cc(-c2n[nH]c3cc(Cl)c(Br)cc23)cn1
